ChEMBL document CHEMBL1201862, “PubChem BioAssay data set” (2004)
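All cell lines were grown in 96-well plates and treated with compound for 48 hours. GI50 = concentration required for 50% inhibition of growth.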 Activity calls are given as the source filed them. No stated cut-off is given here; in the data, active = GI50 up to about 1.1 µM and inactive = higher.

Columns and labels:
Assay in all cases: NCI anticancer screen, dose series, 48 h
786-0 = test system: 786-0
A498 = test system: A498
A549 = test system: A549
ACHN = test system: ACHN
BT-549 = test system: BT-549
CAKI-1 = test system: CAKI-1
CCRF-CEM = test system: CCRF-CEM
COLO 205 = test system: COLO 205
DU-145 = test system: DU-145
EKVX = test system: EKVX
HCC 2998 = test system: HCC 2998
HCT-116 = test system: HCT-116
HCT-15 = test system: HCT-15
HL-60 = test system: HL-60
HOP-62 = test system: HOP-62
HOP-92 = test system: HOP-92
HT-29 = test system: HT-29
Hs-578T = test system: Hs-578T
IGROV-1 = test system: IGROV-1
K562 = test system: K562
KM12 = test system: KM12
LOX IMVI = test system: LOX IMVI
M14 = test system: M14
MCF7 = test system: MCF7
MDA-MB-231 = test system: MDA-MB-231
MDA-MB-435 = test system: MDA-MB-435
MDA-N = test system: MDA-N
MOLT-4 = test system: MOLT-4
Malme-3M = test system: Malme-3M
NCI-H226 = test system: NCI-H226
NCI-H23 = test system: NCI-H23
NCI-H460 = test system: NCI-H460
NCI-H522 = test system: NCI-H522
NCI/ADR-RES = test system: NCI/ADR-RES
OVCAR-3 = test system: OVCAR-3
OVCAR-4 = test system: OVCAR-4
OVCAR-5 = test system: OVCAR-5
OVCAR-8 = test system: OVCAR-8
PC-3 = test system: PC-3
RPMI-8226 = test system: RPMI-8226
RXF 393 = test system: RXF 393
SF-268 = test system: SF-268
SF-295 = test system: SF-295
SF-539 = test system: SF-539
SK-MEL-28 = test system: SK-MEL-28
SK-MEL-2 = test system: SK-MEL-2
SK-MEL-5 = test system: SK-MEL-5
SK-OV-3 = test system: SK-OV-3
SN12C = test system: SN12C
SNB-19 = test system: SNB-19
SNB-75 = test system: SNB-75
SW-620 = test system: SW-620
T47D = test system: T47D
TK-10 = test system: TK-10
U-251 = test system: U-251
UACC-257 = test system: UACC-257
UACC-62 = test system: UACC-62
UO-31 = test system: UO-31
SR = test system: SR

Question: What does the source list for `O=C1Nc2ccc(Br)cc2C1=Nc1cccnc1`?
Answer: GI50 (786-0): 20.5 µM (inactive); GI50 (A498): > 100 µM (inactive); GI50 (A549): 48.4 µM (inactive); GI50 (ACHN): 18.3 µM (inactive); GI50 (BT-549): 17.1 µM (inactive); GI50 (CAKI-1): 20.7 µM (inactive); GI50 (CCRF-CEM): 16.2 µM (inactive); GI50 (COLO 205): 67.3 µM (inactive); GI50 (DU-145): 33 µM (inactive); GI50 (EKVX): 24.3 µM (inactive); GI50 (HCC 2998): 20.6 µM (inactive); GI50 (HCT-116): 20.1 µM (inactive); GI50 (HCT-15): 22.1 µM; GI50 (HL-60): 11.8 µM (inactive); GI50 (HOP-62): 25 µM (inactive); GI50 (HOP-92): > 100 µM (inactive); GI50 (HT-29): 21 µM (inactive); GI50 (Hs-578T): 19.9 µM (inactive); GI50 (IGROV-1): 19 µM (inactive); GI50 (K562): 20.1 µM (inactive); GI50 (KM12): 27.4 µM (inactive); GI50 (LOX IMVI): 15.7 µM (inactive); GI50 (M14): 15.7 µM (inactive); GI50 (MCF7): 22.7 µM (inactive); GI50 (MDA-MB-231): 18.1 µM (inactive); GI50 (MDA-MB-435): 13 µM (inactive); GI50 (MDA-N): 17 µM (inactive); GI50 (MOLT-4): 22.5 µM (inactive); GI50 (Malme-3M): 22.3 µM (inactive); GI50 (NCI-H226): 31.4 µM (inactive); GI50 (NCI-H23): 20.7 µM (inactive); GI50 (NCI-H460): > 100 µM (inactive); GI50 (NCI-H522): 13.2 µM (inactive); GI50 (NCI/ADR-RES): 24.8 µM (inactive); GI50 (OVCAR-3): 18.9 µM (inactive); GI50 (OVCAR-4): 7.23 µM (inactive); GI50 (OVCAR-5): 29.3 µM (inactive); GI50 (OVCAR-8): 25.3 µM (inactive); GI50 (PC-3): 18.1 µM (inactive); GI50 (RPMI-8226): 21.4 µM (inactive); GI50 (RXF 393): 15.2 µM (inactive); GI50 (SF-268): 27.7 µM (inactive); GI50 (SF-295): 50.4 µM (inactive); GI50 (SF-539): 16.5 µM (inactive); GI50 (SK-MEL-28): 19.5 µM (inactive); GI50 (SK-MEL-2): 23.4 µM (inactive); GI50 (SK-MEL-5): 17.8 µM (inactive); GI50 (SK-OV-3): 47.5 µM (inactive); GI50 (SN12C): 18.4 µM (inactive); GI50 (SNB-19): 41.2 µM (inactive); GI50 (SNB-75): > 100 µM (inactive); GI50 (SW-620): 17.8 µM (inactive); GI50 (T47D): 20.6 µM (inactive); GI50 (TK-10): 57.5 µM (inactive); GI50 (U-251): 12.4 µM (inactive); GI50 (UACC-257): 21.4 µM (inactive); GI50 (UACC-62): 17.3 µM (inactive); GI50 (UO-31): 11.1 µM (inactive)

Question: `O=C(O)C(Cc1ccc(O)c([N+](=O)[O-])c1)N1C(=O)c2ccccc2C1=O` (stereo unspecified) was tested. Which GI50 (786-0) did it give?
Answer: > 100 µM (inactive)

Question: And the GI50 (A498)?
Answer: > 100 µM (inactive)

Question: What about the GI50 (A549) of the same compound?
Answer: > 100 µM (inactive)

Question: And the GI50 (ACHN)?
Answer: > 100 µM (inactive)

Question: What about the GI50 (BT-549) of the same compound?
Answer: > 100 µM (inactive)

Question: And the GI50 (CAKI-1)?
Answer: > 100 µM (inactive)

Question: What about the GI50 (CCRF-CEM) of the same compound?
Answer: > 100 µM (inactive)

Question: What about the GI50 (COLO 205) of the same compound?
Answer: > 100 µM (inactive)

Question: What about the GI50 (DU-145) of the same compound?
Answer: > 100 µM (inactive)

Question: What about the GI50 (EKVX) of the same compound?
Answer: > 100 µM (inactive)

Question: And the GI50 (HCT-116)?
Answer: > 100 µM (inactive)

Question: What about the GI50 (HCT-15) of the same compound?
Answer: > 100 µM

Question: And the GI50 (HL-60)?
Answer: 18.6 µM (inactive)

Question: What about the GI50 (HOP-62) of the same compound?
Answer: > 100 µM (inactive)

Question: And the GI50 (HOP-92)?
Answer: > 100 µM (inactive)

Question: And the GI50 (HT-29)?
Answer: > 100 µM (inactive)

Question: And the GI50 (Hs-578T)?
Answer: > 100 µM (inactive)

Question: What about the GI50 (IGROV-1) of the same compound?
Answer: > 100 µM (inactive)

Question: And the GI50 (K562)?
Answer: > 100 µM (inactive)

Question: What about the GI50 (KM12) of the same compound?
Answer: > 100 µM (inactive)

Question: What about the GI50 (LOX IMVI) of the same compound?
Answer: > 100 µM (inactive)

Question: And the GI50 (M14)?
Answer: > 100 µM (inactive)

Question: And the GI50 (MCF7)?
Answer: > 100 µM (inactive)

Question: What about the GI50 (MDA-MB-231) of the same compound?
Answer: > 100 µM (inactive)

Question: What about the GI50 (MDA-MB-435) of the same compound?
Answer: > 100 µM (inactive)

Question: And the GI50 (MDA-N)?
Answer: > 100 µM (inactive)

Question: And the GI50 (MOLT-4)?
Answer: > 100 µM (inactive)

Question: And the GI50 (Malme-3M)?
Answer: > 100 µM (inactive)

Question: And the GI50 (NCI-H226)?
Answer: > 100 µM (inactive)

Question: What about the GI50 (NCI-H23) of the same compound?
Answer: > 100 µM (inactive)

Question: What about the GI50 (NCI-H460) of the same compound?
Answer: > 100 µM (inactive)

Question: What about the GI50 (NCI-H522) of the same compound?
Answer: > 100 µM (inactive)

Question: And the GI50 (NCI/ADR-RES)?
Answer: > 100 µM (inactive)

Question: What about the GI50 (OVCAR-3) of the same compound?
Answer: > 100 µM (inactive)

Question: What about the GI50 (OVCAR-4) of the same compound?
Answer: > 100 µM (inactive)

Question: What about the GI50 (OVCAR-5) of the same compound?
Answer: > 100 µM (inactive)

Question: And the GI50 (OVCAR-8)?
Answer: > 100 µM (inactive)

Question: What about the GI50 (PC-3) of the same compound?
Answer: > 100 µM (inactive)

Question: What about the GI50 (RPMI-8226) of the same compound?
Answer: > 100 µM (inactive)

Question: What about the GI50 (RXF 393) of the same compound?
Answer: > 100 µM (inactive)

Question: And the GI50 (SF-268)?
Answer: > 100 µM (inactive)

Question: And the GI50 (SF-295)?
Answer: > 100 µM (inactive)

Question: What about the GI50 (SF-539) of the same compound?
Answer: > 100 µM (inactive)

Question: And the GI50 (SK-MEL-28)?
Answer: > 100 µM (inactive)

Question: What about the GI50 (SK-MEL-2) of the same compound?
Answer: > 100 µM (inactive)

Question: What about the GI50 (SK-MEL-5) of the same compound?
Answer: > 100 µM (inactive)

Question: What about the GI50 (SK-OV-3) of the same compound?
Answer: > 100 µM (inactive)

Question: And the GI50 (SN12C)?
Answer: > 100 µM (inactive)

Question: And the GI50 (SNB-19)?
Answer: > 100 µM (inactive)

Question: And the GI50 (SNB-75)?
Answer: > 100 µM (inactive)

Question: What about the GI50 (SR) of the same compound?
Answer: > 100 µM (inactive)

Question: And the GI50 (SW-620)?
Answer: > 100 µM (inactive)

Question: And the GI50 (T47D)?
Answer: > 100 µM (inactive)

Question: And the GI50 (TK-10)?
Answer: > 100 µM (inactive)

Question: What about the GI50 (U-251) of the same compound?
Answer: > 100 µM (inactive)

Question: And the GI50 (UACC-257)?
Answer: > 100 µM (inactive)

Question: What about the GI50 (UACC-62) of the same compound?
Answer: > 100 µM (inactive)

Question: What about the GI50 (UO-31) of the same compound?
Answer: > 100 µM (inactive)
